Results reported in ChEMBL document CHEMBL1125852, “Synthesis of 4-Amino-1-(-D-ribofuranosyl)pyrrolo[2,3-d]pyridazine; an entry into a novel series of adenosine analogs” (1991).
Calls of active or inactive are those of the source. No cut-off for these calls is given here.

Assays:
[1] = tested on: Human betaherpesvirus 5; test: Compound was tested for cytotoxicity against human cytomegalo virus at 100 uM; NA - no activity; assay type: functional, organism-based
[2] = tested on: Human betaherpesvirus 5; test: Compound was tested for complete inhibition of growth rate against human cytomegalo virus; assay type: functional

Nc1nncc2c1ccn2C1O[C@H](CO)[C@@H](O)[C@H]1O (some centres not stated)
Activity [1]: inactive | Inhibition [2]: 0.043 µM
